Counter-ions that a name gives are not always drawn.
How the values were obtained:
[1] = Enzymatic hydrolysis of beta blockers by dog blood (procedure C); type: in vitro ADME; conditions: dog, blood, 37° C.; for remaining at 1 h: read-out: Percent drug remaining, dog blood, 1 HR; for remaining at 2 h: read-out: Percent drug remaining, dog blood, 2 HR
Experimental: (§1) Chemicals--Acetonitrile was "HPLC" grade. Distilled water was used to dissolve the compounds and 0.01N HCl was used to dissolve compounds requiring an acidic pH for dissolution.
(§2) Enzyme Source--Fresh aqueous humor was collected from eyes of dogs using a 23-gauge needle while fresh dog blood was collected into heparinized Vacutainer tubes. Fresh liver was homogenized in 0.9% NaCl using a Potter-Elvehjem Teflon pestle and glass homogenizer making a 25% (W/V) homogenate.
(§3) Incubation Condition--A 0.5 ml aliquot of dog aqueous humor, blood or liver homogenate was incubated with 12.5 μg (0.5 ml) of beta blocker in a Dubnoff shaking metabolic incubator at 37° C. for 60 and 120 min. Denatured tissue controls were prepared by adding 2.0 ml of acetonitrile into 0.5 ml of aqueous humor, blood or liver homogenate to destroy esterase activities prior to addition of the beta blockers. The controls were then incubated at 37° C. for 120 min. After 60 and 120 min, the incubations were terminated by addition of 2 ml of acetonitrile and immediately mixed by a Vortex® to stop esterase activities.
(§4) Sample Processing and Data Analyses--All samples were centrifuged at 4000 RPM for 10 min to sediment denatured proteins. The resultant supernatants were transferred to WISP® vials and analyzed using an HPLC assay developed for beta blockers. The hydrolysis of beta blockers by aqueous humor, blood and liver homogenate was determined by disappearance of the compounds. The extent of enzymatic hydrolysis by each tissue was determined by comparing the amount of each compound (absolute peak area) recovered at each time point to the amount of each compound (absolute peak area) in denatured tissue control and aqueous control samples. The results of these experiments are shown in Tabe III.

[2] = system: beta adrenergic receptor (guinea pig trachea vs right atria); assay: Degree of cardioselectivity in vitro, KB trachea/KB atria; conditions: Table I; ratio greater than one indicates cardioselectivity
Experimental: Each tissue was suspended between a fixed glass rod and a Statham Universal Transducer connected to a Beckman recorder. Atria were allowed to beat spontaneously under a loading tension of approximately 0.5 gm. Intrinsic depressant or stimulant activity was determined for each compound by progressively increasing concentrations in the tissue baths at 60-minute intervals. Tissues were not washed between increments. The maximum concentration showing little or no cardiodepressant activity was chosen for blockade experiments. Changes in rate in response to isoproterenol, a standard β-receptor agonist, were measured in the absence and presence of test compounds. Spiral strips of guinea pig trachea were suspended under 5 gm resting tension and incubated with phentolamine, tropolone and cocaine. Active tension was generated by addition of carbachol (3.0×10^-7 M) and decreases in tension in response to isoproterenol were quantitated. Cumulative concentration-response curves were produced with isoproterenol both before and after 60-minute incubation of test compounds with atria and trachea. […] The blocking potency of test compounds was estimated by computing pA2 values (-log […]) by the method of Furchgott, the Pharmacological Differentiation of Adrenergie Receptors, Ann. […] The degree of cardioselectivity was estimated from the ratio, KB trachea/KB atria (10^(pA.sbsp.2^atria-pA.sbsp.2^trachea)). A ratio greater than one indicates cardioselectivity. Test drugs were dissolved in distilled water and added to the bath (30 ml) in a volume of 10 or 100 μl.

[3] = target: T1, beta adrenergic receptor (guinea pig right atria) (Cavia porcellus, UniProt H0W3H1); assay: Beta-blocking activity in vitro, guinea pig right atria (blockade of isoproterenol rate response); conditions: Table I; guinea pig right atria, isoproterenol agonist, 60-minute incubation, 37° C.; read-out: PA2 Rt. Atria (converted)
T1 construct: guinea pig right atria and guinea pig tracheal strips mounted in a tissue bath; from tissue; host or cells: guinea pig right atria, spontaneously beating
T1 sequence (H0W3H1 1-470): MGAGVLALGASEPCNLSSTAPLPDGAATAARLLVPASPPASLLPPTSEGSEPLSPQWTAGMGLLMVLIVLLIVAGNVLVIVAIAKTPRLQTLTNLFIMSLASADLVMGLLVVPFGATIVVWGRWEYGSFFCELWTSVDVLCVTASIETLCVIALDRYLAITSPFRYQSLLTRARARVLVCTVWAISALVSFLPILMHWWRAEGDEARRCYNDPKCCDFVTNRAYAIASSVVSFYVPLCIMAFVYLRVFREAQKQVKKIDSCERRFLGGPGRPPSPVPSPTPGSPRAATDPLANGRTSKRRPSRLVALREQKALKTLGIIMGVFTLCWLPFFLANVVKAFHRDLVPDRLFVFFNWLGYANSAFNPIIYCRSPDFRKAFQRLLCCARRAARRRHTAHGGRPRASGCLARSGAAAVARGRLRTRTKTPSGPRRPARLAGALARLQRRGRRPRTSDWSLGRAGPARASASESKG

[4] = Enzymatic hydrolysis of beta blockers by dog liver homogenate (procedure C); type: in vitro ADME; conditions: dog, liver homogenate, 37° C.; for remaining at 1 h: read-out: Percent drug remaining, dog liver homogenate, 1 HR; for remaining at 2 h: read-out: Percent drug remaining, dog liver homogenate, 2 HR
Experimental: as §1, §2, §3, §4

[5] = Half-lives of beta blockers in dog whole blood (procedure D); type: in vitro ADME; conditions: 37° C., read-out: T1/2 dog blood
Experimental: (§5) The rate of disappearance of a compound is expressed as the half-life (T1/2), which is the time period in which one half of the initial amount of compound tested disappears. In each experiment, 1 ml of a solution containing 50 μg of the test compound was added to 1 ml of whole blood or 1 ml of a 33% (w/v) liver homogenate. The samples were incubated in a Dubnoff shaking metabolic incubator for 2.5, 5.0, 10.0, 20.0, 30.0 and 60.0 minutes at 37° C. At the designated time periods, the test mixtures were removed from the incubator and transferred to a 0° C. ice bath. Acetonitrile (2 ml) was immediately added and the mixtures were mixed to stop enzymatic hydrolysis. Zero time samples were prepared by adding 2 ml of acetonitrile to denature the proteins prior to addition of the test compounds. After centrifugation to sediment denatured proteins, 2 ml of the supernatant was removed and analyzed by high pressure liquid chromatography, using a mobile phase of 60% acetonitrile/40% 0.05 m sodium phosphate buffer (pH 6.6), a U.V. detector and Waters u Bondapak Phenyl column. The half life of each test compound was determined graphically by plotting the decrease in concentrations as a function of time.

[6] = Enzymatic hydrolysis of beta blockers by dog aqueous humor (procedure C); type: in vitro ADME; conditions: for remaining at 1 h / remaining at 2 h: 37° C.; for remaining at 1 h: read-out: Percent drug remaining, dog aqueous humor, 1 HR; for remaining at 2 h: read-out: Percent drug remaining, dog aqueous humor, 2 HR
Experimental: as §1, §2, §3, §4

[7] = system: beta adrenergic receptor (heart rate response to isoproterenol); assay: Duration and potency of beta-blocking action in vivo, 3-hour infusion in pentobarbital-anesthetized dogs; parameters: species or system dog; conditions: Table II; for Potency: infusion rate adjusted so isoproterenol inhibition averaged about 50% at end of 3-hour infusion; for % I (Percent inhibition of heart rate response to isoproterenol): isoproterenol 0.5 μg/kg bolus, 3-hour infusion
Experimental: The duration of β-blockade was determined in vivo using pentobarbital-anesthetized dogs instrumented for measurement of heart rate using a Beckman cardiotachometer triggered electronically by a phasic aortic blood pressure signal. Both vagus nerves were severed in the cervical region and the animals were mechanically ventilated. The experimental design used employed a 3-hour infusion of test compound. Bolus doses of isoproterenol (0.5 μg/kg) were used to assess the degree of β-blockade and recovery from β-blockade after […] of the infusion. The doses were spaced at 10-minute intervals and were given before, during and following the infusion of test compounds. The infusion rate was adjusted so that at the end of the 3-hour infusion period the degree of isoproterenol inhibition averaged about 50% of control. Following termination of blocker infusion, percent recovery from β-blockade was computed and the time associated with 80% recovery estimated.

[8] = Half-lives of beta blockers in dog liver homogenate (procedure D); type: in vitro ADME; conditions: 33% (w/v) homogenate, 37° C., read-out: T1/2 dog liver homogenate
Experimental: as §5

[9] = Physician's Desk Reference, 35th Edition, 1981, p. 1233; cited from earlier work
[10] = after termination of 3-hour infusion

Compound	remaining at 1 h [1]	remaining at 2 h [1]	Cardioselectivity KB (Trachea)/KB (Atria) [2]	Kb [3]	remaining at 1 h [4]	remaining at 2 h [4]	half-life [5]	remaining at 1 h [6]	remaining at 2 h [6]	half-life ([6]; approximate value determined by procedure C, read-out: T1/2 dog aqueous humor)	metabolised at 1 h ([6]; one hour, read-out: hydrolyzed in aqueous humor after one hour)	metabolised at 2 h ([6]; two hours, read-out: hydrolyzed in aqueous humor after two hours)	Recovery Time 80% [7, 10]	Potency [7]	% I (Percent inhibition of heart rate response to isoproterenol) [7]	half-life [8]	Recovery Time 50% [7, 10]	adverse reactions to topical use [9]
CC(C)(CNC(=O)N1CCOCC1)NCC(O)COC(=O)c1ccccc1F (stereo not drawn) [Example II, 3-[1,1-Dimethyl-2-(1-morpholinocarbonylamino)]ethylamino-2-hydroxypropyl 2-Fluorobenzoate Hydrochloride]	0%	0%	2	3.16 nM	0%	0%	15 min	58%	32%	60 to 120 min	42%	68%	–	–	–	–	–	–
CC(C)(CNC(N)=O)NCC(O)COC(=O)c1ccccc1F (stereo not drawn) [Example X, 3-[1,1-Dimethyl-2-(aminocarbonylamino)]ethylamino-2-hydroxypropyl 2-Fluorobenzoate]	0%	0%	–	20 nM	0%	0%	15 min	0%	0%	–	–	–	21 min	0.7 mg/kg/180 min	49%	2.5 min	–	–
CCOC(=O)NCC(C)(C)NCC(O)COC(=O)c1ccccc1F (stereo not drawn) [IX, 3-[1,1-Dimethyl-2-(ethoxycarbonylamino)]ethylamino-2-hydroxypropyl 2-Fluorobenzoate Hydrochloride]	0%	0%	–	79.4 nM	0%	0%	8 min	0%	0%	–	–	–	8 ± 3 min	6.5 ± 1.8 mg/kg/180 min	49 ± 4%	1 min	3 ± 1 min	–
CC(C)(CNC(=O)Nc1ccccc1)NCC(O)COC(=O)c1ccccc1F (stereo not drawn) [XII, 3-[1,1-Dimethyl-2-(phenylaminocarbonylamino)]ethylamino-2-hydroxypropyl 2-Fluorobenzoate]	–	–	5	79.4 nM	–	–	–	–	–	–	–	–	–	–	–	–	–	–
CC(C)(CNC(=O)N1CCOCC1)NCC(O)COC(=O)c1cc(O)cc(O)c1 (stereo not drawn) [XXXVIII, 3-[1,1-Dimethyl-2-(1-morpholinocarbonylamino)]ethylamino-2-hydroxypropyl 3,5-Dihydroxybenzoate Oxalate Hemihydrate]	–	–	1	1 nM	–	–	–	–	–	–	–	–	–	–	–	–	–	–
CC(C)(C)NC[C@H](O)COc1nsnc1N1CCOCC1 [timolol maleate]	–	–	–	–	–	–	–	–	–	–	–	–	–	–	–	–	–	bronchospasm and heart failure, as well as cardiac conduction defects

— US4798892A, “2-hydroxypropylamine heteroaryl ester derivatives” (priority 1986, dated 1989)
